Test system: brainstem
Experiment: Test of the effect of oral methylphenidate on evoked averaged brainstem response in a patient with ADHD
Format: in vivo, human
Procedure: To emphasize the importance of using the subject as its own reference when conducting herein described tests, FIG. 8a-c is showing a test of the effect of oral methylphenidate medication in a patient with ADHD. In this test each of the train of sound pulses will repeatedly present sound pulses to the patient for thirty seconds and for each sound pulse presented to the subject a corresponding response signal is recorded. The response signal for each set of train of sound pulses is then averaged to obtain an evoked averaged brainstem response.
In FIG. 8a, a measuring with only unmodified sound pulses, i.e. the sound stimuli comprising only one train being a train of unmodified sound pulses 72. Sound stimuli were presented twice to the subject (at t0+0 and t0+60 sec) and the corresponding response signals were recorded and evoked averaged brainstem responses were established 74a, 74b. This was done when the patient was not under influence of methylphenidate medication, i.e. baseline or control state. The measured variable is here an absolute value 70 measured in μV of the amplitude of peak III. […] Both times the corresponding response signals were recorded and evoked averaged brainstem responses were established 74c, 74d.
In FIG. 8b, a measuring with only modified sound pulses, i.e. the sound stimuli comprising only one train being a train of modified sound pulses 73. Sound stimuli were presented twice to the subject (at t0+0 and t0+60 sec) and the corresponding response signals were recorded and evoked averaged brainstem responses were established 75a, 75b. This was done when the patient was not under influence of methylphenidate medication, i.e. baseline or control state. The measured variable is here an absolute value 71 measured in NV of the amplitude of peak III. […] Both times the corresponding response signals were recorded and evoked averaged brainstem responses were established 75c, 75d. […]

COC(=O)C(c1ccccc1)C1CCCCN1 (stereo not drawn) [methylphenidate]
methylphenidate effect on amplitude of peak III (absolute value), only modified sound pulses (single train of modified sound pulses, t1+0 and t1+60 sec vs drug-free baseline, FIG. 8b): no detectable methylphenidate effect could be established
methylphenidate effect on amplitude of peak III (absolute value), only unmodified sound pulses (single train of unmodified sound pulses, t1+0 and t1+60 sec vs drug-free baseline, FIG. 8a): no detectable methylphenidate effect could be established
methylphenidate effect on relative measure (modified train averaged evoked brainstem response as a percentage of the unmodified average evoked response) (unmodified train followed by modified train, compared at t1+60 sec and t1+120 sec vs drug-free baseline, FIG. 8c): detectable methylphenidate effect could be seen
